Assay results as given in BigSolDB 2.1.

Compound `O=C(O)CCCc1c[nH]c2ccccc12` has a solubility (mole fraction) (in 2-butanone, 283.15 K) of 0.123, a solubility (mole fraction) (in 2-butanone, 288.15 K) of 0.139 and a solubility (mole fraction) (in 2-butanone, 293.15 K) of 0.152. For the same compound, the solubility (mole fraction) (in 2-butanone, 298.15 K) was 0.168, the solubility (mole fraction) (in 2-butanone, 303.15 K) was 0.185 and the solubility (mole fraction) (in 2-butanone, 308.15 K) was 0.198. For the same compound, the solubility (mole fraction) (in 2-butanone, 313.15 K) was 0.218, the solubility (mole fraction) (in 2-butanone, 318.15 K) was 0.24 and the solubility (mole fraction) (in 2-butanone, 323.15 K) was 0.264. It also gave a solubility (mole fraction) (in acetone, 283.15 K) of 0.22, a solubility (mole fraction) (in acetone, 288.15 K) of 0.24 and a solubility (mole fraction) (in acetone, 293.15 K) of 0.257. For the same compound, the solubility (mole fraction) (in acetone, 298.15 K) was 0.274, the solubility (mole fraction) (in acetone, 303.15 K) was 0.291 and the solubility (mole fraction) (in acetone, 308.15 K) was 0.315. The solubility (mole fraction) (in acetone, 313.15 K) was 0.339, the solubility (mole fraction) (in acetone, 318.15 K) was 0.365 and the solubility (mole fraction) (in acetone, 323.15 K) was 0.399. For the same compound, the solubility (mole fraction) (in acetonitrile, 283.15 K) was 0.0411, the solubility (mole fraction) (in acetonitrile, 288.15 K) was 0.0531 and the solubility (mole fraction) (in acetonitrile, 293.15 K) was 0.0654. For the same compound, the solubility (mole fraction) (in acetonitrile, 298.15 K) was 0.0814, the solubility (mole fraction) (in acetonitrile, 303.15 K) was 0.104 and the solubility (mole fraction) (in acetonitrile, 308.15 K) was 0.123. The solubility (mole fraction) (in acetonitrile, 313.15 K) was 0.155, the solubility (mole fraction) (in acetonitrile, 318.15 K) was 0.192 and the solubility (mole fraction) (in acetonitrile, 323.15 K) was 0.256. It also gave a solubility (mole fraction) (in dimethyl carbonate, 283.15 K) of 0.0194, a solubility (mole fraction) (in dimethyl carbonate, 288.15 K) of 0.022 and a solubility (mole fraction) (in dimethyl carbonate, 293.15 K) of 0.0287. It also gave a solubility (mole fraction) (in dimethyl carbonate, 298.15 K) of 0.0354, a solubility (mole fraction) (in dimethyl carbonate, 303.15 K) of 0.0453 and a solubility (mole fraction) (in dimethyl carbonate, 308.15 K) of 0.0535. The solubility (mole fraction) (in dimethyl carbonate, 313.15 K) was 0.0644, the solubility (mole fraction) (in dimethyl carbonate, 318.15 K) was 0.0827 and the solubility (mole fraction) (in dimethyl carbonate, 323.15 K) was 0.101. It also gave a solubility (mole fraction) (in ethanol, 283.15 K) of 0.048, a solubility (mole fraction) (in ethanol, 288.15 K) of 0.0557 and a solubility (mole fraction) (in ethanol, 293.15 K) of 0.0642. For the same compound, the solubility (mole fraction) (in ethanol, 298.15 K) was 0.0753, the solubility (mole fraction) (in ethanol, 303.15 K) was 0.0886 and the solubility (mole fraction) (in ethanol, 308.15 K) was 0.1. For the same compound, the solubility (mole fraction) (in ethanol, 313.15 K) was 0.116, the solubility (mole fraction) (in ethanol, 318.15 K) was 0.141 and the solubility (mole fraction) (in ethanol, 323.15 K) was 0.171. It also gave a solubility (mole fraction) (in ethyl acetate, 283.15 K) of 0.049, a solubility (mole fraction) (in ethyl acetate, 288.15 K) of 0.0582 and a solubility (mole fraction) (in ethyl acetate, 293.15 K) of 0.0689. For the same compound, the solubility (mole fraction) (in ethyl acetate, 298.15 K) was 0.0808, the solubility (mole fraction) (in ethyl acetate, 303.15 K) was 0.0914 and the solubility (mole fraction) (in ethyl acetate, 308.15 K) was 0.103. It also gave a solubility (mole fraction) (in ethyl acetate, 313.15 K) of 0.122, a solubility (mole fraction) (in ethyl acetate, 318.15 K) of 0.145 and a solubility (mole fraction) (in ethyl acetate, 323.15 K) of 0.17. The solubility (mole fraction) (in ethyl lactate, 283.15 K) was 0.101, the solubility (mole fraction) (in ethyl lactate, 288.15 K) was 0.106 and the solubility (mole fraction) (in ethyl lactate, 293.15 K) was 0.117. The solubility (mole fraction) (in ethyl lactate, 298.15 K) was 0.128, the solubility (mole fraction) (in ethyl lactate, 303.15 K) was 0.14 and the solubility (mole fraction) (in ethyl lactate, 308.15 K) was 0.151. The solubility (mole fraction) (in ethyl lactate, 313.15 K) was 0.165, the solubility (mole fraction) (in ethyl lactate, 318.15 K) was 0.19 and the solubility (mole fraction) (in ethyl lactate, 323.15 K) was 0.22. For the same compound, the solubility (mole fraction) (in isobutanol, 283.15 K) was 0.0213, the solubility (mole fraction) (in isobutanol, 288.15 K) was 0.0253 and the solubility (mole fraction) (in isobutanol, 293.15 K) was 0.0315. The solubility (mole fraction) (in isobutanol, 298.15 K) was 0.0379, the solubility (mole fraction) (in isobutanol, 303.15 K) was 0.0477 and the solubility (mole fraction) (in isobutanol, 308.15 K) was 0.0581. The solubility (mole fraction) (in isobutanol, 313.15 K) was 0.0697, the solubility (mole fraction) (in isobutanol, 318.15 K) was 0.0857 and the solubility (mole fraction) (in isobutanol, 323.15 K) was 0.102. The solubility (mole fraction) (in isobutyl acetate, 283.15 K) was 0.0355, the solubility (mole fraction) (in isobutyl acetate, 288.15 K) was 0.0429 and the solubility (mole fraction) (in isobutyl acetate, 293.15 K) was 0.0498. It also gave a solubility (mole fraction) (in isobutyl acetate, 298.15 K) of 0.0572, a solubility (mole fraction) (in isobutyl acetate, 303.15 K) of 0.0649 and a solubility (mole fraction) (in isobutyl acetate, 308.15 K) of 0.0736. For the same compound, the solubility (mole fraction) (in isobutyl acetate, 313.15 K) was 0.0848, the solubility (mole fraction) (in isobutyl acetate, 318.15 K) was 0.0958 and the solubility (mole fraction) (in isobutyl acetate, 323.15 K) was 0.11. It also gave a solubility (mole fraction) (in isopentanol, 283.15 K) of 0.0309, a solubility (mole fraction) (in isopentanol, 288.15 K) of 0.0348 and a solubility (mole fraction) (in isopentanol, 293.15 K) of 0.0412. It also gave a solubility (mole fraction) (in isopentanol, 298.15 K) of 0.0505, a solubility (mole fraction) (in isopentanol, 303.15 K) of 0.0601 and a solubility (mole fraction) (in isopentanol, 308.15 K) of 0.0725. It also gave a solubility (mole fraction) (in isopentanol, 313.15 K) of 0.0858, a solubility (mole fraction) (in isopentanol, 318.15 K) of 0.0985 and a solubility (mole fraction) (in isopentanol, 323.15 K) of 0.116. The solubility (mole fraction) (in isopropanol, 283.15 K) was 0.0406, the solubility (mole fraction) (in isopropanol, 288.15 K) was 0.0494 and the solubility (mole fraction) (in isopropanol, 293.15 K) was 0.0599. It also gave a solubility (mole fraction) (in isopropanol, 298.15 K) of 0.0724, a solubility (mole fraction) (in isopropanol, 303.15 K) of 0.0859 and a solubility (mole fraction) (in isopropanol, 308.15 K) of 0.0984. For the same compound, the solubility (mole fraction) (in isopropanol, 313.15 K) was 0.112, the solubility (mole fraction) (in isopropanol, 318.15 K) was 0.128 and the solubility (mole fraction) (in isopropanol, 323.15 K) was 0.143. The solubility (mole fraction) (in isopropyl acetate, 283.15 K) was 0.0492, the solubility (mole fraction) (in isopropyl acetate, 288.15 K) was 0.0628 and the solubility (mole fraction) (in isopropyl acetate, 293.15 K) was 0.0711. For the same compound, the solubility (mole fraction) (in isopropyl acetate, 298.15 K) was 0.0813, the solubility (mole fraction) (in isopropyl acetate, 303.15 K) was 0.0905 and the solubility (mole fraction) (in isopropyl acetate, 308.15 K) was 0.101. The solubility (mole fraction) (in isopropyl acetate, 313.15 K) was 0.11, the solubility (mole fraction) (in isopropyl acetate, 318.15 K) was 0.124 and the solubility (mole fraction) (in isopropyl acetate, 323.15 K) was 0.149. The solubility (mole fraction) (in methanol, 283.15 K) was 0.0481, the solubility (mole fraction) (in methanol, 288.15 K) was 0.0562 and the solubility (mole fraction) (in methanol, 293.15 K) was 0.0656. It also gave a solubility (mole fraction) (in methanol, 298.15 K) of 0.0777, a solubility (mole fraction) (in methanol, 303.15 K) of 0.0922 and a solubility (mole fraction) (in methanol, 308.15 K) of 0.104. It also gave a solubility (mole fraction) (in methanol, 313.15 K) of 0.123, a solubility (mole fraction) (in methanol, 318.15 K) of 0.153 and a solubility (mole fraction) (in methanol, 323.15 K) of 0.181. It also gave a solubility (mole fraction) (in methyl acetate, 283.15 K) of 0.0573, a solubility (mole fraction) (in methyl acetate, 288.15 K) of 0.0623 and a solubility (mole fraction) (in methyl acetate, 293.15 K) of 0.0701. It also gave a solubility (mole fraction) (in methyl acetate, 298.15 K) of 0.0812, a solubility (mole fraction) (in methyl acetate, 303.15 K) of 0.0909 and a solubility (mole fraction) (in methyl acetate, 308.15 K) of 0.106. The solubility (mole fraction) (in methyl acetate, 313.15 K) was 0.126, the solubility (mole fraction) (in methyl acetate, 318.15 K) was 0.154 and the solubility (mole fraction) (in methyl acetate, 323.15 K) was 0.19. The solubility (mole fraction) (in n-butanol, 283.15 K) was 0.0362, the solubility (mole fraction) (in n-butanol, 288.15 K) was 0.0422 and the solubility (mole fraction) (in n-butanol, 293.15 K) was 0.0495. The solubility (mole fraction) (in n-butanol, 298.15 K) was 0.0582, the solubility (mole fraction) (in n-butanol, 303.15 K) was 0.0688 and the solubility (mole fraction) (in n-butanol, 308.15 K) was 0.0786. It also gave a solubility (mole fraction) (in n-butanol, 313.15 K) of 0.0961, a solubility (mole fraction) (in n-butanol, 318.15 K) of 0.112 and a solubility (mole fraction) (in n-butanol, 323.15 K) of 0.134. It also gave a solubility (mole fraction) (in n-butyl acetate, 283.15 K) of 0.0582, a solubility (mole fraction) (in n-butyl acetate, 288.15 K) of 0.0645 and a solubility (mole fraction) (in n-butyl acetate, 293.15 K) of 0.0726. It also gave a solubility (mole fraction) (in n-butyl acetate, 298.15 K) of 0.0797, a solubility (mole fraction) (in n-butyl acetate, 303.15 K) of 0.0885 and a solubility (mole fraction) (in n-butyl acetate, 308.15 K) of 0.0977. It also gave a solubility (mole fraction) (in n-butyl acetate, 313.15 K) of 0.112, a solubility (mole fraction) (in n-butyl acetate, 318.15 K) of 0.129 and a solubility (mole fraction) (in n-butyl acetate, 323.15 K) of 0.141. The solubility (mole fraction) (in n-pentanol, 283.15 K) was 0.0362, the solubility (mole fraction) (in n-pentanol, 288.15 K) was 0.0408 and the solubility (mole fraction) (in n-pentanol, 293.15 K) was 0.0486. For the same compound, the solubility (mole fraction) (in n-pentanol, 298.15 K) was 0.058, the solubility (mole fraction) (in n-pentanol, 303.15 K) was 0.0674 and the solubility (mole fraction) (in n-pentanol, 308.15 K) was 0.0764. The solubility (mole fraction) (in n-pentanol, 313.15 K) was 0.0929, the solubility (mole fraction) (in n-pentanol, 318.15 K) was 0.108 and the solubility (mole fraction) (in n-pentanol, 323.15 K) was 0.124. It also gave a solubility (mole fraction) (in n-propanol, 283.15 K) of 0.0385, a solubility (mole fraction) (in n-propanol, 288.15 K) of 0.0446 and a solubility (mole fraction) (in n-propanol, 293.15 K) of 0.0534. The solubility (mole fraction) (in n-propanol, 298.15 K) was 0.0605, the solubility (mole fraction) (in n-propanol, 303.15 K) was 0.0727 and the solubility (mole fraction) (in n-propanol, 308.15 K) was 0.0863. For the same compound, the solubility (mole fraction) (in n-propanol, 313.15 K) was 0.0994, the solubility (mole fraction) (in n-propanol, 318.15 K) was 0.112 and the solubility (mole fraction) (in n-propanol, 323.15 K) was 0.139. For the same compound, the solubility (mole fraction) (in sec-butanol, 283.15 K) was 0.0417, the solubility (mole fraction) (in sec-butanol, 288.15 K) was 0.0486 and the solubility (mole fraction) (in sec-butanol, 293.15 K) was 0.0582. The solubility (mole fraction) (in sec-butanol, 298.15 K) was 0.0692, the solubility (mole fraction) (in sec-butanol, 303.15 K) was 0.0829 and the solubility (mole fraction) (in sec-butanol, 308.15 K) was 0.0964. For the same compound, the solubility (mole fraction) (in sec-butanol, 313.15 K) was 0.111, the solubility (mole fraction) (in sec-butanol, 318.15 K) was 0.13 and the solubility (mole fraction) (in sec-butanol, 323.15 K) was 0.163.
